Among the data in patent US20240335442A1 (Eurofarma Laboratórios S.A., priority 2021, published 2024) are IC50 values, retold here.

In general, IC50 refers to the concentration that gives 50% inhibition.

Assay [1] has as its target human sodium channel Nav 1.8 (Homo sapiens (Human), UniProt Q9Y5Y9). As to the kind of experiment: Automated whole-cell voltage-clamp (ScreenPatch 384P), Nav 1.8 sodium current, Protocol 2. It is filed as cell-based. To be noted: read-out: Nav1.8 IC50. Here is the method: (§1) Biological assays were performed on Chinese hamster ovary (CHO) cells expressing the human sodium channels Nav 1.8 and Nav 1.7 stably.
(§2) The experimental voltage-clamp protocol using the whole cell configuration was established on the automated ScreenPatch® 384P platform (SP384PE, Nanion Technologies, Livingston, NJ) and recording of the results was performed with a Nanion 384-well Patch Clamp chip (NPC) (Nanion Technologies, Livingston, NJ).
(§3) Compounds of Formula (I), were diluted in eight concentrations in the extracellular solution composed of physiological saline, buffered with HEPES (mM): NaCl, 137; KCl, 4; CaCl2, 3.8; MgCl2, 1; HEPES, 10; Glucose, 10; pH 7.4. The […], 50; CsF, 90; MgCl2, 5; EGTA, 5; HEPES, 10; pH 7.2. The duration of exposure of each compound with the cells expressing Nav 1.7 or Nav 1.8 was at least five minutes and the assays were performed at room temperature.
(§4) The measurements of the sodium currents of Nav 1.8 and Nav 1.7 were obtained using the voltage protocols described below: • Protocol 1: A holding voltage of-90 mV was established followed by a voltage phase of 200 ms to-120 mV, followed by a voltage step of 10 mV for 1 second for Nav 1.8 or 0 mV for Nav 1.7, followed by a step of-100 mV for 20 ms, followed by a step of 20 ms for 10 mV for Nav 1.8 or 0 mV for Nav 1.7 (TP1A) before returning to the holding voltage of-90 mV. • Protocol 2: A holding voltage of-100 mV was established followed by an inactivation voltage step at −40 mV for 8 seconds, followed by a −100 mV step for 20 ms, followed by a 20 ms step for 10 mV for Nav 1.8 or 0 mV for Nav 1.7 (TP1A) before returning to the holding voltage of-100 mV.
(§5) Protocols were repeated at a frequency of 0.1 Hz (Protocol 1) or 0.05 Hz (Protocol 2) and current amplitude was quantified over the TP1A phase log. The variation in the peak amplitude of the current was evaluated according to the Formula described below, after exposure of the cells expressing the channels, at each concentration of the different compounds:
(§6) where ITP1A,basal, and ITP1A,molecule represent the entry peaks of sodium currents into TP1A prior to exposure to the compound and in the presence of the compound, respectively.
(§7) The decrease in peak current amplitude, after exposure of the cells to the compounds, was used to calculate the percent relative blocking of the channels relative to the positive control according to the Formula below: […]
(§8) where % V and % CP represent the averages of the values of current inhibition with a vehicle (DMSO) and positive controls, respectively. The sodium currents of the positive control were considered as 100%.
(§9) where [Test] represents the concentration of the evaluated molecule, IC50 is the concentration of the compound that generates half of the maximum inhibition, N is the Hill's coefficient and % Block′ is the percentage of the sodium channel current (Nav 1.8 and Nav 1.7) inhibited at each concentration of the evaluated molecule. Data were obtained by non linear least squares regression with XL fit for Excel (Microsoft, Redmond, WA).
(§10) Compounds were tested in at least one assay to obtain the IC50 value.

For assay [2], the target named is human sodium channel Nav 1.7 (Homo sapiens (Human), UniProt Q15858). The assay is described as follows: Automated whole-cell voltage-clamp (ScreenPatch 384P), Nav 1.7 sodium current, Protocol 2. It is filed as cell-based. To be noted: read-out: Nav1.7 IC50. Here is the method:
as §1, §2, §3, §4, §5, §6, §7, §8, §9, §10

Sequence of human sodium channel Nav 1.8 (Q9Y5Y9 whole entry): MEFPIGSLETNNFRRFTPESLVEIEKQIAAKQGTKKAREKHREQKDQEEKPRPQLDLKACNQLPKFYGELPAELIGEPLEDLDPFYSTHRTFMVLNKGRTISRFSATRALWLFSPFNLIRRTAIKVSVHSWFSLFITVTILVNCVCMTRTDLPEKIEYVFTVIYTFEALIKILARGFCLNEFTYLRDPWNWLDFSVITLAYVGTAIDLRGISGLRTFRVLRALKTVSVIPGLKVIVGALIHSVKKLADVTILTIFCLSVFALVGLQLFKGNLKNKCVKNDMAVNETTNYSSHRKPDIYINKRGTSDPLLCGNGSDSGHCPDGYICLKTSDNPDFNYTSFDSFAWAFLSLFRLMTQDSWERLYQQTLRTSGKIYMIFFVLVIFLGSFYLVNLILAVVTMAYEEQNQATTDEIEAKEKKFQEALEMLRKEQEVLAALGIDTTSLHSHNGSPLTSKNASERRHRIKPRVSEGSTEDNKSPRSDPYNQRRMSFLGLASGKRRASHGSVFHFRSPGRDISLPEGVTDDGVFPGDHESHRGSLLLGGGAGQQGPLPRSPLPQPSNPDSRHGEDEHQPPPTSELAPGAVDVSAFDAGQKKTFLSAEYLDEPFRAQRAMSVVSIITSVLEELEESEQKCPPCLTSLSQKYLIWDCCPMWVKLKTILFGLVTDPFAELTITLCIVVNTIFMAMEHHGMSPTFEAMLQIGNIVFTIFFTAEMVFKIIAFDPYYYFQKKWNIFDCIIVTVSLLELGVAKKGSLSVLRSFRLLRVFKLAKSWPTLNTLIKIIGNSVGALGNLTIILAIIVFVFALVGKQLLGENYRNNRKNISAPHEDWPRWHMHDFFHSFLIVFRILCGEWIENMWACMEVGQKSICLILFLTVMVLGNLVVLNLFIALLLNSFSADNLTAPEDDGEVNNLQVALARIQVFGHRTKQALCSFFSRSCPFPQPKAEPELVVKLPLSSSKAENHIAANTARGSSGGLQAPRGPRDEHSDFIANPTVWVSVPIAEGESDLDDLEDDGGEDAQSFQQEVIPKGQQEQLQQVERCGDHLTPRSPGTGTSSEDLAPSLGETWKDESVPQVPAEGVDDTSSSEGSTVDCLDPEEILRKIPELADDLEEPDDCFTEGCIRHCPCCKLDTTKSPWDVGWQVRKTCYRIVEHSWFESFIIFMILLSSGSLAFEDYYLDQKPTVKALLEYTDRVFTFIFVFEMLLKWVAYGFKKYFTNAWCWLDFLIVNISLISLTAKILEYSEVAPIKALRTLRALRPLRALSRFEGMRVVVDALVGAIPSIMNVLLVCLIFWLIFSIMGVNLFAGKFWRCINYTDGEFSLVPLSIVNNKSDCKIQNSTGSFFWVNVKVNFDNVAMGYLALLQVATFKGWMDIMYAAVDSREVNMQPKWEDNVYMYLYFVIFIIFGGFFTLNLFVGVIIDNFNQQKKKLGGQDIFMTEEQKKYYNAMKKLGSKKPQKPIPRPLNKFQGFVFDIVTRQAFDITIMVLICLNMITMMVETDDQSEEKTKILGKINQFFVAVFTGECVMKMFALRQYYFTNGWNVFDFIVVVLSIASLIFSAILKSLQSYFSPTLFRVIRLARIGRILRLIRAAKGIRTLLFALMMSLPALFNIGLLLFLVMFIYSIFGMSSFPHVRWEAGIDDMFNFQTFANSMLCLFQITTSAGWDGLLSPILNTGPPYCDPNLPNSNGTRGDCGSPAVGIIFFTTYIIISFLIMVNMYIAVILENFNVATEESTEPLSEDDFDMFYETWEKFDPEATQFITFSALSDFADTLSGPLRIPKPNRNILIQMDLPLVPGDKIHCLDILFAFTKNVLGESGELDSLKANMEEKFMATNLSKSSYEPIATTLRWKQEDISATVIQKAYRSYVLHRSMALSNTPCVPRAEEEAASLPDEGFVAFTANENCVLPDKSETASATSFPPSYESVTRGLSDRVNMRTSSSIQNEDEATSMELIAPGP
Sequence of human sodium channel Nav 1.7 (Q15858 whole entry): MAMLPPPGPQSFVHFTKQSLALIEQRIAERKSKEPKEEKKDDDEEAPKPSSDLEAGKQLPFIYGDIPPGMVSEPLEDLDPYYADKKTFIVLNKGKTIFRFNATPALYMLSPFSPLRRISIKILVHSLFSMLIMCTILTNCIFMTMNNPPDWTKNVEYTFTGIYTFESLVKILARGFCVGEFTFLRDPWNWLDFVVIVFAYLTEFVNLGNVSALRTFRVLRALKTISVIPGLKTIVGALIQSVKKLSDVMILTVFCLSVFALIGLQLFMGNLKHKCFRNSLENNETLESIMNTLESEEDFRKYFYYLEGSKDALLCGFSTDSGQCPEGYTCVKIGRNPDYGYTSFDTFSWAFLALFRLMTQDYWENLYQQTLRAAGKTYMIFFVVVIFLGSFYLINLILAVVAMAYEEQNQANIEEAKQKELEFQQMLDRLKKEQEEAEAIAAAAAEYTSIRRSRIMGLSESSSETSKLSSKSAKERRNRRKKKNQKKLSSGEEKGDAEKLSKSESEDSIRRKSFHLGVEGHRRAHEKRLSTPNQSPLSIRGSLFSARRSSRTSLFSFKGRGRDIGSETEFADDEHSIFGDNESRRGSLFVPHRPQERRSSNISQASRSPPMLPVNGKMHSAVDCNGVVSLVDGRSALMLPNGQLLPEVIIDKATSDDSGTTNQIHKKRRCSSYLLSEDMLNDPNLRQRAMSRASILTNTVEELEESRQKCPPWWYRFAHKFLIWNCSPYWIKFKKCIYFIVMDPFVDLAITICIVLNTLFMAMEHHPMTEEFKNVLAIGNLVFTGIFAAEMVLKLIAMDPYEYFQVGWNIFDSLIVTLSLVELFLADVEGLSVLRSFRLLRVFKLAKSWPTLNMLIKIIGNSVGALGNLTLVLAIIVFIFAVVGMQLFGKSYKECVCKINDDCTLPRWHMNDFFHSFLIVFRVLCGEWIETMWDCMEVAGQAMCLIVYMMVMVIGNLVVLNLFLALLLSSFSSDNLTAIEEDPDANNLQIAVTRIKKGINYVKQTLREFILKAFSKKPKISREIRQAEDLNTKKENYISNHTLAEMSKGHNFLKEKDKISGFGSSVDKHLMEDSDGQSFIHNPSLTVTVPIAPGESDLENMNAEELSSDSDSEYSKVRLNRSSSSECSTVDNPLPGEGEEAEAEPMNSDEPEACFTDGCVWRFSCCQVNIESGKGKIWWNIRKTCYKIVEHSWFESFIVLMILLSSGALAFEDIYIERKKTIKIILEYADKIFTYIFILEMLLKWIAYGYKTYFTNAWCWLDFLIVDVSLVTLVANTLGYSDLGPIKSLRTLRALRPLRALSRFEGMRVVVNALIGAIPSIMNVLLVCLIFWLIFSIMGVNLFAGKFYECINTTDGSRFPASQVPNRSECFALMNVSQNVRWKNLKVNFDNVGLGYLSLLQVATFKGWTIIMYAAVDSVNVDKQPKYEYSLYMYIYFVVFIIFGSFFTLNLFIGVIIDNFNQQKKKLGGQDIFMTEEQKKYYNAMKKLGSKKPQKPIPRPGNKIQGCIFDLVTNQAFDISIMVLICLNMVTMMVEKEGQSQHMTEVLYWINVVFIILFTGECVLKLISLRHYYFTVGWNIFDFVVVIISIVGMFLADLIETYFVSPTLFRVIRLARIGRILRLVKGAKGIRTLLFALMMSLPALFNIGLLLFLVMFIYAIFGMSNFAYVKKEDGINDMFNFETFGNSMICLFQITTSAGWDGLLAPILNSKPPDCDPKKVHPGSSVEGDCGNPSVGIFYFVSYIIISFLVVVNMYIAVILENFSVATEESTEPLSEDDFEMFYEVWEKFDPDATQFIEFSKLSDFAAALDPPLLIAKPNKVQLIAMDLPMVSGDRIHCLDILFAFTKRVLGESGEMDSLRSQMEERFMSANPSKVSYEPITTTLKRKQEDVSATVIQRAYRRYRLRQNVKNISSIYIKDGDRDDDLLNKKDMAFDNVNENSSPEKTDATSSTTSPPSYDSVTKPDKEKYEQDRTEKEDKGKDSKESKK

Regarding `COc1ccc(-c2cncc(C(=O)N/N=C/c3ccc(OC)c(OC)c3OC)n2)cc1` [Compound 82, (E)-6-(4-methoxyphenyl)-N′-(2,3,4-trimethoxybenzylidene)pyrazine-2-carbohydrazide], the IC50 was greater than 1000 nM in assay [1] and 2770 nM in assay [2].
For `CCCCOc1ccc(-c2cncc(C(=O)N/N=C/c3cc(OC)cc(OC)c3)n2)cc1` [Compound 83], in that order: 103 nM and 135 nM.
With `CCCCOc1ccc(-c2cncc(C(=O)N/N=C/c3cc(C)cc(C)c3)n2)cc1` [Compound 84, (E)-6-(4-butoxyphenyl)-N′-(3,5-dimethylbenzylidene)pyrazine-2-carbohydrazide], the IC50 in assay [1] was 152 nM; in assay [2], 179 nM.
In the case of `COc1cc(/C=N/NC(=O)c2cncc(-c3ccc(OCC(C)C)cc3)n2)cc(OC)c1` [Compound 85, (E)-N′-(3,5-dimethoxybenzylidene)-6-(4-isobutoxyphenyl)pyrazine-2-carbohydrazide], the IC50 in assay [1] was found to be 31.8 nM; in assay [2], 159 nM.
For `Cc1cc(C)cc(/C=N/NC(=O)c2cncc(-c3ccc(OCC(C)C)cc3)n2)c1` [Compound 86, (E)-N′-(3,5-dimethylbenzylidene)-6-(4-isobutoxyphenyl)pyrazine-2-carbohydrazide], the 50% inhibitory concentration (IC50) is 209 nM in assay [1] and 141 nM in assay [2].
The corresponding values for `COc1cc(/C=N/NC(=O)c2cncc(-c3ccc(OC(C)(C)C)cc3)n2)cc(OC)c1` [Compound 87, (E)-6-(4-(tert-butoxy)phenyl)-N′-(3,5-dimethoxybenzylidene)pyrazine-2-carbohydrazide] are 447 nM and 264 nM.
For `COc1cc(/C=N/NC(=O)c2cncc(-c3ccc(OC4CC4)cc3)n2)cc(OC)c1` [Compound 88, (E)-6-(4-cyclopropoxyphenyl)-N′-(3,5-dimethoxybenzylidene)pyrazine-2-carbohydrazide], in that order: 42.6 nM and 70.4 nM.
For `COc1cc(/C=N/NC(=O)c2cncc(-c3ccc(OC4CCCCC4)cc3)n2)cc(OC)c1` [Compound 89, (E)-6-(4-(cyclohexyloxy)phenyl)-N′-(3,5-dimethoxybenzylidene)pyrazine-2-carbohydrazide], in that order: 149 nM and 212 nM.
Consider `COc1ccc(-c2nccnc2C(=O)N/N=C/c2cc(OC)cc(OC)c2)cc1` [Compound 90, (E)-N′-(3,5-dimethoxybenzylidene)-3-(4-methoxyphenyl)pyrazine-2-carbohydrazide], for which the IC50 was greater than 1000 nM in assay [1] and greater than 10000 nM in assay [2].
The corresponding values for `COc1ccc(-c2cnc(C(=O)N/N=C/c3cc(OC)cc(OC)c3)cn2)cc1` [Compound 91, (E)-N′-(3,5-dimethoxybenzylidene)-5-(4-methoxyphenyl)pyrazine-2-carbohydrazide] are greater than 1000 nM and greater than 10000 nM.
The corresponding values for `COc1cc(/C=N/NC(=O)c2cncc(-c3ccc(F)cc3)n2)cc(OC)c1` [Compound 92, (E)-N′-(3,5-dimethoxybenzylidene)-6-(4-fluorophenyl)pyrazine-2-carbohydrazide] are greater than 1000 nM and greater than 10000 nM.
The corresponding values for `COc1cc(/C=N/NC(=O)c2cncc(-c3cccc(Cl)c3)n2)cc(OC)c1` [Compound 93, (E)-6-(3-chlorophenyl)-N′-(3,5-dimethoxybenzylidene)pyrazine-2-carbohydrazide] are greater than 1000 nM and greater than 10000 nM.
On to `COc1cc(/C=N/NC(=O)c2cncc(-c3cccc(F)c3)n2)cc(OC)c1` [Compound 94, (E)-N′-(3,5-dimethoxybenzylidene)-6-(3-fluorophenyl)pyrazine-2-carbohydrazide], for which the 50% inhibitory concentration (IC50) was greater than 1000 nM in assay [1] and greater than 10000 nM in assay [2].
The corresponding values for `COc1cc(/C=N/NC(=O)c2cncc(-c3ccccc3Cl)n2)cc(OC)c1` [Compound 95, (E)-6-(2-chlorophenyl)-N′-(3,5-dimethoxybenzylidene)pyrazine-2-carbohydrazide] are greater than 1000 nM and greater than 10000 nM.
